Read-outs that look alike come from different tables or passages of the source.
How the values were obtained:
[1] = system: CFA-induced cold allodynia; experiment: Complete Freund's Adjuvant (CFA) cold allodynia rodent pain model; type: in vivo; details: 150 mg/kg; vehicle 19.8
Experimental: The compound of Formula (Ia) is also active in rodent models of pain in vivo induced by cold allodynia following chronic Complete Freund's Adjuvant-induced inflammation, as described in Example 6. […] The compound of Formula (Ia), the comparator compound of Formula (II) and ketoprofen were tested by the CFA-induced pain test method reported in del Camino et al., J. Neurosci., 30(45):15165-15174, incorporated herein by reference in its entirety. Briefly, the hind paw was sensitized to cold temperature (allodynic), by administering 0.1 mL of Complete Freund's Adjuvant (CFA) to the left hind paw. 2-3 days later, the time taken for the animal to lift its CFA-injected paw was recorded compared to its un-injected normal right hind paw. […] To avoid tissue damage the maximum cut-off time was 5 minutes. Animals that were allodynic (average PWL to the first three pain behaviors <150 seconds for the CFA-injected hind paw: ˜≧50% difference between the normal and CFA-injected paw) were included in the study and subsequently randomized across treatment groups. The following day, the animals were dosed under blinded conditions. Following the 1-2 hour pre-treatment time, the post-dose PWL readings were again taken. The efficacy of the drug treatment was assessed by comparing the PWL in the drug treatment animals to those animals that received the vehicle.

[2] = system: formalin-induced pain behavior; experiment: Formalin-induced pain behavior in vivo rodent model; parameters: species or system rat; details: for # of Flinches: Table 3c, vehicle 120
From the text: The data shown in Tables 3a, 3b, and 3c and FIG. 2 were obtained by administering a pharmaceutical composition comprising the compound of Formula (Ia) to rodents in the formalin-induced pain duration at various doses according to Example 5. Specifically, the data in Tables 3a, 3b, and 3c and FIG. 2 were obtained by intraperitoneal (i.p.) administration of compositions containing different concentrations of the compound of Formula (Ia), a comparator composition containing recited amounts of the comparator compound (e.g., 150 mg/kg of the comparator compound of Formula (II) in Table 3a) and a control composition containing the vehicle (e.g., without the compound of Formula (Ia) or a comparator compound).
The compound of Formula (Ia) and the comparator compounds of Formula (II) and Formula (III) were tested in the formalin-induced pain test reported by Dubuisson et al., Pain 1977 December; 4(2):161-74 (incorporated herein by reference in its entirety). Dubuisson et al. (1977) describe a method for assessing pain and analgesia in rats and cats. Briefly, dilute formalin (50 μL of 3% formalin) is injected into the plantar surface of the hind paw. […] The individual responsible for counting the pain behaviors in a particular study is blinded to the treatment groups.
Rats were treated with the HCl salt of Compound (Ia) at various doses (3, 10, 30, and 50 mg/kg, IP) or with the vehicle (IP).

[3] = 7-day repeat dose i.p. screening toxicity study in rats; type: in vivo, rat; details: rats; 50 mg/kg/day i.p. for 7 consecutive days
Experimental: The compound of Formula (Ia) was evaluated in a 7-day repeat dose screening toxicity study in female rats. In order to maximize systemic exposure, rats were administered compound of Formula (Ia) i.p. at 50 mg/kg/day for 7 consecutive days, to obtain the results shown in FIG. 6. Clinical chemistry parameters were evaluated on Days 3 and 8. Histopathology was performed on select organs including the liver, kidney, spleen, and lung.

rTRPA1 = rTRPA1 (Rattus norvegicus, UniProt Q6RI86); experiment: Whole-cell patch clamp block of inward current through rTRPA1; type: cell-based; details: class symbol; read-out: Potency (IC50) Rat
Experimental: (§1) Data for TRPA1 inhibition and the selectivity of TRPA1 inhibition was obtained by this method for the compound of Formula (Ia) and included in Table 1 and Table 2. All currents were recorded in whole-cell configuration using EPC-9 and EPC-10 amplifiers and Patchmaster software (HEKA). […] The standard pipette solution consisted of 140 mM CsAsp, 10 mM EGTA, 10 mM HEPES, 2.27 mM MgCl2, 1.91 mM CaCl2, 4 mM MgATP, and 0.1-0.3 mM Na2GTP, with pH adjusted to 7.2 with CsOH. In addition, a solution containing 145 mM CsCl, 10 mM HEPES, 10 mM EGTA and 1 mM MgCl2 (pH 7.2 adjusted with CsOH) can be used. The standard bath solution contained 150 mM NaCl, 10 mM HEPES, 10 mM glucose, 4.5 mM KCl, 1 mM EGTA, 3 mM MgCl2, with pH adjusted to 7.4 with NaOH. In some instances, 2 mM CaCl2 was added in place of EGTA and the concentration of MgCl2 was reduced to 1 mM.
(§2) Data were collected either by continuous recordings at −60 mV or by applying voltage ramps from a holding potential of 0 mV every 4 s. Continuous recordings were collected at 400 Hz and digitally filtered off-line at 10 Hz for presentation. Voltage ramps were applied from −100 mV to 100 mV over the course of 400 ms, and data were collected at 10 kHz and filtered at 2.9 kHz. Inward and outward currents were analyzed from the ramps at −80 and 80 mV, respectively. Liquid junction potential correction was not used.
(§3) Solutions were switched using a gravity-fed continuous focal perfusion system. To achieve rapid temperature changes, two temperature control and perfusion systems were employed simultaneously. For temperatures ≧22° C., a Warner Instruments bipolar temperature controller (TC-344B) and inline heater (SHM-8) were used. […] Temperatures were confirmed using a thermistor (Warner Instruments, TA-29), with temperatures at the recorded cell estimated to be within +/−2° C. of those reported.
(§4) IC50 of compounds was estimated by testing each compound at 5 micromolar and 500 nanomolar. […] IC50 for compounds between 500 nanomolar and 5 micromolar was similarly estimated. […]

[4] = Human plasma protein binding by equilibrium dialysis; type: in vitro ADME; details: percentage bound
Experimental: The amount of compound in buffer (free fraction) and the amount of compound associated with the plasma fraction is determined by equilibrium dialysis; the amount of compound bound is expressed as a percentage. (Banker et al., Journal of Pharmaceutical Sciences (2003) 92(5): 967-74.)

[5] = Oral bioavailability pharmacokinetic study; type: in vivo; details: rat, plasma, PO versus IV
Experimental: The potency and pharmacokinetic (PK) properties of (a) the compound of Formula (Ia); and (b) comparator compound of Formula (III) were evaluated. Bioavailability was measured as well. A pharmacokinetic study was performed to obtain a plasma drug concentration vs time plot for the drug after both intravenous (IV) and oral (PO) administration. The absolute bioavailability is the dose-corrected area under curve (AUC) non-intravenous divided by AUC intravenous. The formula for calculating F for a drug administered by the oral route (PO) is given below.
The bioavailability was calculated using the equation shown below:
% F=AUC PO×Dose IV/AUC IV×Dose PO

[6] = system: serum biomarkers of hepatotoxicity (ALT, AST, ALP, GGT); experiment: Hepatotoxicity serum biomarker study in dogs, oral dose; type: in vivo, dog; details: for ALT level elevation: single PO dose of 50 mg/kg
Experimental: The compound of Formula (Ia) was orally dosed to […] at dose levels of 5, 15 or 50 mg/kg using 30% Sulfobutylether β-cyclodextrin as the vehicle for assessment of safety as measured via serum chemistry biomarkers of hepatotoxicity or bile duct injury FIG. 5A, showing measurements of alanine aminotranferease [ALT], aspartate aminotranferease [AST], alkaline phosphatase [ALP] and gamma-glutamyl transferase [GGT] in the dogs at each dose level (each bar represents a measurement from 1 dog in the study). […] For example, the ALT levels were elevated up to about 60-fold in male dogs and up to about 130-fold in female beagle dogs following a single PO dose of 50 mg/kg.

hTRPA1 [7] = target: T1, hTRPA1 (Homo sapiens, UniProt O75762); experiment: Whole-cell patch clamp block of inward current through hTRPA1; type: cell-based
Experimental: as §1, §2, §3
IC50 of compounds was estimated by testing each compound at 5 micromolar and 500 nanomolar. […] IC50 for compounds between 500 nanomolar and 5 micromolar was similarly estimated. Compounds blocking 50% or more at 500 nanomolar are retested at multiple concentrations, and the % block at each is fitted by standard equations to determine IC50 accurately using a 5-6 point concentration/response experiment.

dTRPA1 = dTRPA1 (Canis lupus familiaris, UniProt A0A8I3Q1Q7); experiment: Whole-cell patch clamp block of inward current through dTRPA1; type: cell-based, Dog; details: class symbol; read-out: Potency (IC50) Dog
Experimental: as §1, §2, §3, §4

hTRPA1 [8] = target: T1, hTRPA1; experiment: hTrpA1 IC50 measured in 1% RSA (rat serum albumin); type: cell-based
[9] = hTRPA1, Human, current activation 10 micromolar AITC, whole cell patch, read-out: IC50 Inward current

T1 sequence (O75762 whole entry): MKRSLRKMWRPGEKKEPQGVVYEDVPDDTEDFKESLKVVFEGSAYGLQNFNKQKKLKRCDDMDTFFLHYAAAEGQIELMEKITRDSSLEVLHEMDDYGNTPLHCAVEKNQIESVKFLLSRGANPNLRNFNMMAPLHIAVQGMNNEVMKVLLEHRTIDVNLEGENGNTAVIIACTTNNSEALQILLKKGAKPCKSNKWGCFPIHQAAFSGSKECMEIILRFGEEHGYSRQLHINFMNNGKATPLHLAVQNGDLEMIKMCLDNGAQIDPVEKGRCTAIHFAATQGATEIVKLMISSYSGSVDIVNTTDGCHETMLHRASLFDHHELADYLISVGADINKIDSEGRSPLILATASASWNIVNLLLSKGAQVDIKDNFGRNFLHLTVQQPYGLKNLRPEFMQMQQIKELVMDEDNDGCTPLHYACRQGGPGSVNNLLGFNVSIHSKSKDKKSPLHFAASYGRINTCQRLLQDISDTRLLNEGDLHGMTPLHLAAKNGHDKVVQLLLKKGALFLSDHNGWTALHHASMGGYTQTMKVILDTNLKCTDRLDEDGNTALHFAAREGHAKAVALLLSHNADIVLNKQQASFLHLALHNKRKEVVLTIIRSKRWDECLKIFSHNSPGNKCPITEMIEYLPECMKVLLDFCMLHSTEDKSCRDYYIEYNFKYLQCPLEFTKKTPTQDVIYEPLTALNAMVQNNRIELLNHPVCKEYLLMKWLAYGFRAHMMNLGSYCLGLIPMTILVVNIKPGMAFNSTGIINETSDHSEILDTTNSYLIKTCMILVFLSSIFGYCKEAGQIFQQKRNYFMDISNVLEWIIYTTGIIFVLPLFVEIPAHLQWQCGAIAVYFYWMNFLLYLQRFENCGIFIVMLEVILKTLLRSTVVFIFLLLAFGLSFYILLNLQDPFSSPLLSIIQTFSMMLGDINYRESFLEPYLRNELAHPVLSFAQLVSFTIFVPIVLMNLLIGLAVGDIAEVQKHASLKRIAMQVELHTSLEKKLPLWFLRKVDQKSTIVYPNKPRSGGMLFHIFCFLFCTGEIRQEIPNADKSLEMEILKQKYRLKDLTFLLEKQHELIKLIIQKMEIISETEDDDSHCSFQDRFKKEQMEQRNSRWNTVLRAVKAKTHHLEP
Chain of dTRPA1 (A0A8I3Q1Q7 1-1118): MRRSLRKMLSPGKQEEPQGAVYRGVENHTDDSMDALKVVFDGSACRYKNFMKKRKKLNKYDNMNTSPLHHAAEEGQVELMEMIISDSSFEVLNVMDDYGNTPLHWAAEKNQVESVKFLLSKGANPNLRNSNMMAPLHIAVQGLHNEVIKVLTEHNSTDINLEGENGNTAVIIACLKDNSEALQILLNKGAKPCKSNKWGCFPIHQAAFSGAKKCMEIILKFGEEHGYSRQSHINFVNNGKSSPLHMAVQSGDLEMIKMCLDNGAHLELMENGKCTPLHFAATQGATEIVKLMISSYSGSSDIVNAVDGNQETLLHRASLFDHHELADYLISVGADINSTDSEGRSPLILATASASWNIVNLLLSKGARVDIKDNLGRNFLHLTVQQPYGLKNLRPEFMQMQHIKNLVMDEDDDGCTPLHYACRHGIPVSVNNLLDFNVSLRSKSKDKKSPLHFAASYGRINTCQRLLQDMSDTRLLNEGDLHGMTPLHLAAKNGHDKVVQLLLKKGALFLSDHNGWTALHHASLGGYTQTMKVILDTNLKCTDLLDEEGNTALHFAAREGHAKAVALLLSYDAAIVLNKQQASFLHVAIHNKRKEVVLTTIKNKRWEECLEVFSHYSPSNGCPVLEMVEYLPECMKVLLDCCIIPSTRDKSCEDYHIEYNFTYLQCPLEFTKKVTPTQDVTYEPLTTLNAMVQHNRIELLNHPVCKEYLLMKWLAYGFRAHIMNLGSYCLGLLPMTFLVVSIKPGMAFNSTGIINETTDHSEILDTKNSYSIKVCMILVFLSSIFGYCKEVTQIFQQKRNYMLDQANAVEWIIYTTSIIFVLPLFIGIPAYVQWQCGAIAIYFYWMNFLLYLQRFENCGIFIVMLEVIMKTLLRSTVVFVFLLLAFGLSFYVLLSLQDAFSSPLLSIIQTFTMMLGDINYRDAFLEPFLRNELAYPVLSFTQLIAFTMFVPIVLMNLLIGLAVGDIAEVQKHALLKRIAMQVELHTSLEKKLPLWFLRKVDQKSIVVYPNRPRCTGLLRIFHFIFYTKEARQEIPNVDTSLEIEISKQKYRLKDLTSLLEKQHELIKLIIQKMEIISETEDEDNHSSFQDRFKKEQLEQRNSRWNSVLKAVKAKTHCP
Chain of rTRPA1 (Q6RI86 whole entry): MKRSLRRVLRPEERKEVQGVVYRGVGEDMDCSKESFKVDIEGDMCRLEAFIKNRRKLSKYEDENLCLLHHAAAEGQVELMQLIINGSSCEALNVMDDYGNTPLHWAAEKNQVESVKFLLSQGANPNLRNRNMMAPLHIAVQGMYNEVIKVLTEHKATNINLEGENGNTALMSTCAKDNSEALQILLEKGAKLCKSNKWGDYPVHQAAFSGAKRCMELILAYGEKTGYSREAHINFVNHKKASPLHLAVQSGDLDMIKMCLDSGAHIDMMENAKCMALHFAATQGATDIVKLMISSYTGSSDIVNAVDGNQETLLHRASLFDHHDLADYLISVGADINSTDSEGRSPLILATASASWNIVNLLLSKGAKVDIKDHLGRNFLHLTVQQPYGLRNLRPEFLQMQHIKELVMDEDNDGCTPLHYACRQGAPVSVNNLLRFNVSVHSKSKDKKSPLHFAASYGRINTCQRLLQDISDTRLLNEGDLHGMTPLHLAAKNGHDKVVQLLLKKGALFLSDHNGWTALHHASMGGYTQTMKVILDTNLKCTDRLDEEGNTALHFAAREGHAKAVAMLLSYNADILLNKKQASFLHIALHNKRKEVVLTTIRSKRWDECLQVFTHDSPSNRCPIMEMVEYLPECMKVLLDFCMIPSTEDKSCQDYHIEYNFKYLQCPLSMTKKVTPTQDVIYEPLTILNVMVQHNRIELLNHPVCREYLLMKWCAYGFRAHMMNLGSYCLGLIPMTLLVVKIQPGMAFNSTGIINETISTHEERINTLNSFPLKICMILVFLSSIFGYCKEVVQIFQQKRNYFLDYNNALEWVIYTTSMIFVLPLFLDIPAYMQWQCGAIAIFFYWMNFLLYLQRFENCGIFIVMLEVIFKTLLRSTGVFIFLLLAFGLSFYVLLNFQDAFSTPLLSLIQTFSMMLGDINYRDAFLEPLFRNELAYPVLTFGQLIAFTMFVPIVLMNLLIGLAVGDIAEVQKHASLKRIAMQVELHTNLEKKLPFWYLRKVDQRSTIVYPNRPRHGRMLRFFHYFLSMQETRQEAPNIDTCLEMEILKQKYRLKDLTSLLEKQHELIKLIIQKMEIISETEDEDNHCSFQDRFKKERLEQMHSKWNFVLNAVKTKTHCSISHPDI

In the case of `CC(C)c1ccc(NC(=O)Cn2cnc3c2c(=O)n(C)c(=O)n3C)cc1` [Formula (II)], the “Change in Paw Withdrawal Latency” value [1] is reported as 142.2, the “# of Flinches” value ([2]; 30 mg/kg) is reported as 88 and the “# of Flinches” value ([2]; 100 mg/kg) is reported as 62. For the same compound, the “Duration of Pain Behavior” value ([2]; 150 mg/kg, Table 3a, vehicle 88.6) was 40.0 s and the “# of Flinches” value ([2]; 300 mg/kg) was 43.

With `C[C@H]1CCCN1c1ccc(-c2csc(NC(=O)Cn3cnc4c3c(=O)n(C)c(=O)n4C)n2)cc1F` [Formula (III), reference compound] the “effect on serum biomarkers of hepatotoxicity” value [3] was “did elevate serum biomarkers of hepatotoxicity as compared to Formula (Ia)”, the IC50 (rTRPA1) was 50 to 100 nM and the fraction unbound [4] was under 0.01. For the same compound, the bioavailability ([5]; oral, fed rats, read-out: Bioavailability (Rat) Fed) was 1 to 25%, the bioavailability ([5]; po, fasted rats, read-out: Bioavailability (Rat) Fasted) was 25 to 50% and the bioavailability ([5]; po, fed rats, read-out: Bioavailability (Rat) Fed) was 1 to 25%. The “effect on serum biomarkers of hepatotoxicity” value ([6]; dogs, 50 mg/kg PO) was “did elevate serum biomarkers of hepatotoxicity”, the ALT level elevation ([6]; female beagle dogs) was “up to 130 fold” and the ALT level elevation ([6]; male dogs) was “up to 60 fold”. The IC50 (hTRPA1 [7]; [9]) was under 25 nM, the IC50 (hTRPA1 [7]; hTRPA1, class symbol, read-out: Potency (IC50) Human) was under 25 nM and the IC50 (dTRPA1) was under 25 nM. For the same compound, the “Duration of Pain Behavior” value ([2]; 50 mg/kg, Table 3b, vehicle 77.2) was 44.3 s.

`C[C@@H]1CCCN1c1ncc(-c2cccc(NC(=O)Cn3cnc4c3c(=O)n(C)c(=O)n4C)n2)cn1` [Formula (Ib)] showed an IC50 (hTRPA1 [8]) of 15200 nM and an IC50 (hTRPA1 [7]; [9]) of 77 nM.

In the case of `NCC1(CC(=O)O)CCCCC1` [Gabapentin], the “# of Flinches” value ([2]; reference, dose not given) is reported as 75.
